Laboratory results taken from patent US10344019B2 (priority 2010, dated 2019).

Assays:
Assay type in all cases: cell-based
[1] = test system: Q30R in genotype 1a NS5A, 1a Rluc replicon transfected into Huh-7 cured-51 cells; assay: HCV replicon assay, resistance mutant 1a Q30R; conditions: Hepatitis C virus, Huh-7, read-out: 1a Q30R
Outline: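 Q30R introduced into genotype 1a H77 RLuc replicon by site-directed mutagenesis; replicon RNA transfected into Huh-7 cured-51 cells.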

[2] = test system: HCV 2a Rluc cells (NS5A chimeric genotype 2a JFH-1 replicon with genotype 2a J6 strain NS5A gene, M31 present); assay: HCV replicon reporter assay, genotype 2a J6 (M31 present); conditions: Hepatitis C virus, read-out: 2a J6
Outline: (§1)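 Replicon cells stably carrying the listed RLuc-encoding dicistronic replicons were seeded and treated with DMSO serial dilutions of compound (10 mM stocks) diluted into culture medium. After 72 h, cells were lysed and Renilla luciferase activity measured. EC50 was derived by non-linear regression.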

[3] = test system: HCV 2a JFH-1 Rluc cells (dicistronic genotype 2a JFH-1 replicon, RLuc reporter); assay: microbe, parasite or virus in culture; conditions: Hepatitis C virus, genotype 2a JFH-1 RLuc replicon; read-out: 2a JFH
Outline: as §1

[4] = test system: HCV 1a RLuc cells (dicistronic genotype 1a H77 replicon, RLuc reporter); assay: microbe, parasite or virus in culture; conditions: Hepatitis C virus, genotype 1a H77 RLuc replicon; read-out: 1a
Outline: as §1

[5] = test system: HCV 2b Rluc cells (NS5A chimeric genotype 2a JFH-1 replicon with genotype 2b MD2b-1 NS5A gene, M31 present); assay: microbe, parasite or virus in culture; conditions: Hepatitis C virus, read-out: 2b
Outline: as §1

[6] = test system: HCV 3a RLuc cells (NS5A chimeric genotype 1b Con1 replicon with consensus genotype 3a NS5A gene); assay: microbe, parasite or virus in culture; conditions: Hepatitis C virus, read-out: 3a, genotype 3a NS5A chimeric replicon
Outline: as §1

[7] = test system: HCV 1b RLuc cells (dicistronic genotype 1b Con1 replicon, RLuc reporter); assay: microbe, parasite or virus in culture; conditions: Hepatitis C virus, read-out: 1b (nM)
Outline: as §1

[8] = test system: HCV 4a Rluc cells (NS5A chimeric genotype 1b Con1 replicon with genotype 4a NS5A gene); assay: microbe, parasite or virus in culture; conditions: Hepatitis C virus, read-out: 4a
Outline: as §1

SMILES	EC50 [1] [pM]	EC50 [2] [pM]	EC50 [3] [pM]	EC50 [4] [pM]	EC50 [5] [pM]	EC50 [6] [pM]	EC50 [7] [nM]	EC50 [8] [pM]
COC[C@H]1C[C@@H](c2nc3ccc4cc5c(cc4c3[nH]2)OCc2cc(-c3cnc([C@@H]4CCCN4C(=O)[C@@H](NC(=O)OC)C(C)C)[nH]3)ccc2-5)N(C(=O)[C@@H](NC(=O)OC)C(C)C)C1 [Example 495]	1 to 999	1 to 999	1 to 999	1 to 999	1 to 999	1 to 990	0.026	1 to 990
COC(=O)N[C@H](C(=O)N1CCC[C@H]1c1nc2ccc3cc4c(cc3c2[nH]1)OCc1cc(-c2cnc([C@@H]3CCCN3C(=O)[C@H](NC(=O)C3CC3)c3ccccc3)[nH]2)ccc1-4)C(C)C [Example 498]	1 to 999	1 to 999	1 to 999	1 to 999	1 to 999	1 to 990	0.016	1 to 990
COC[C@H]1C[C@@H](c2ncc(-c3ccc(-c4ccc(-c5cnc([C@@H]6CCCN6C(=O)[C@@H](NC(=O)OC)C(C)C)[nH]5)cc4)cc3)[nH]2)N(C(=O)[C@H](NC(=O)OC)c2ccccc2)C1 [Example 500]	1 to 999	1000 to 44000	1 to 999	1 to 999	1 to 999	1 to 990	0.028	1 to 990
COC[C@H]1C[C@@H](c2nc3ccc4cc(-c5ccc6c(ccc7nc([C@@H]8C[C@H]9C[C@H]9N8C(=O)[C@@H](NC(=O)OC)C(C)C)[nH]c76)c5)ccc4c3[nH]2)N(C(=O)[C@H](NC(=O)C2CC2)c2ccccc2)C1 [Example 502]	1 to 999	1 to 999	1 to 999	1 to 999	1 to 999	1 to 990	0.016	1 to 990
COC[C@H]1C[C@@H](c2ncc(-c3ccc(-c4ccc(-c5cnc([C@@H]6CCCN6C(=O)[C@@H](NC(=O)OC)C(C)C)[nH]5)cc4)cc3)[nH]2)N(C(=O)[C@H](NC(=O)C2CC2)c2ccccc2)C1 [Example 506]	1 to 999	1 to 999	1 to 999	1 to 999	1 to 999	1 to 990	0.036	1 to 990
COC[C@H]1C[C@@H](c2nc3ccc4cc(-c5ccc(-c6[nH]c([C@@H]7CCCN7C(=O)[C@H](NC(=O)C7CC7)c7ccccc7)nc6C)cc5)ccc4c3[nH]2)N(C(=O)[C@@H](NC(=O)OC)C(C)C)C1 [Example 525]	1 to 999	1 to 999	1 to 999	1 to 999	1 to 999	1 to 990	0.038	1 to 990
COC[C@H]1C[C@@H](c2ncc(-c3ccc(-c4ccc(-c5cnc([C@@H]6C[C@H]7C[C@H]7N6C(=O)[C@@H](NC(=O)OC)C(C)C)[nH]5)cc4)cc3)[nH]2)N(C(=O)[C@H](NC(=O)C2CC2)c2ccccc2)C1 [Example 527]	1 to 999	1 to 999	1 to 999	1 to 999	1 to 999	1 to 990	0.022	1 to 990
COC(=O)N[C@H](C(=O)N1[C@@H]2C[C@@H]2C[C@H]1c1nc2ccc3cc4c(cc3c2[nH]1)OCc1cc(-c2cnc([C@@H]3CCCN3C(=O)[C@H](NC(=O)OC)c3ccccc3)[nH]2)ccc1-4)C(C)C [Example 536]	1 to 999	1 to 999	1 to 999	1 to 999	1 to 999	1 to 990	0.013	1 to 990
COC[C@H]1C[C@@H](c2nc3ccc4cc5c(cc4c3[nH]2)OCc2cc(-c3cnc([C@@H]4C[C@H]6C[C@H]6N4C(=O)[C@@H](NC(=O)OC)C(C)C)[nH]3)ccc2-5)N(C(=O)[C@H](NC(=O)OC)c2ccccc2)C1 [Example 539]	1 to 999	1 to 999	1 to 999	1 to 999	1 to 999	1 to 990	0.016	1 to 990
